Patent publication US7256207B2, “Inhibitors of cathepsin S” (IRM LLC, priority 2003, dated 2007)

What was measured:
Assay type in all cases: biochemical
Cathepsin S = Cathepsin S (Homo sapiens, UniProt P25774); assay: Cathepsin S inhibition assay, fluorogenic peptide substrate; details: Cathepsin S inhibition constant; pH5.5, 20 minutes preincubation at room temperature; read-out: Ki Cat. S
Description: (§1) The optimal substrate for cathepsin S, acetyl-histidine-proline-valine-lysine-amino carbamoyl coumarin, was identified from screening a combinatorial library of fluorogenic peptide substrates (Harris, J. L., B. J. Backes, et al. Proc Natl Acad Sci U S A 2000, 97(14), 7754-9). Kinetic measurements are performed in a total reaction volume of 30 μl in 384-well microtiter plates. Cathepsin S, at a final concentration of 0.3-3 nM (active site), is incubated with the compounds at twelve varying concentrations in a buffer containing 100 mM NaAc (pH5.5), 1 mM EDTA, 100 mM NaCl, 0.01% Brij-35 for 20 minutes at room temperature. Control reactions in the absence of inhibitor are performed in replicates of 24. The reactions are initiated by adding the substrate, acetyl-histidine-proline-valine-lysine-amino carbamoyl coumarin, to a final concentration of 50 μM. The rate of substrate hydrolysis is measured by monitoring the increase in fluorescence at an excitation wavelength of 380 nm and an emission wavelength of 450 nm that results from cleavage of the aniline bond in the substrate by the enzyme. The apparent inhibition constants for the compounds are determined from the enzyme progress curves (Kuzmic, P., K. C. Elrod, et al. Anal Biochem 2000, 286(1), 45-50) and are then used to calculate the inhibition constants for competitive inhibitors.

Cathepsin K = molecular target: T1, Cathepsin K (Homo sapiens, UniProt P43235); assay: Cathepsin K inhibition assay, fluorogenic peptide substrate (selectivity for Cat. S over Cat. K); details: ratio of cathepsin K inhibition constant to cathepsin S inhibition constant
T1 sequence (P43235 115-329): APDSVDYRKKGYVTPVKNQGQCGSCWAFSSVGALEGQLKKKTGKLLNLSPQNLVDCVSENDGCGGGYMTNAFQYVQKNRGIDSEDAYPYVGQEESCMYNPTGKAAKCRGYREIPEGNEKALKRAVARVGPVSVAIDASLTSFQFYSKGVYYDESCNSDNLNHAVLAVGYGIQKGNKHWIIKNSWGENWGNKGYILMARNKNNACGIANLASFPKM
Description: as §1, with “cathepsin K, acetyl-lysine-histidine-proline-lysine-amino” for “cathepsin S, acetyl-histidine-proline-valine-lysine-amino”, “Cathepsin K,” for “Cathepsin S,”, “of 3.5” for “of 0.3-3”, “substrate, acetyl-lysine-histidine-proline-lysine-amino” for “substrate, acetyl-histidine-proline-valine-lysine-amino”, “of 40” for “of 50”
(§2) Selectivity for cathepsin S in the presence of cathepsin isozymes was determined by the ratio of the cathepsin isozyme inhibition constant of a compound of the present invention to the cathepsin S inhibition constant of the same compound. Preferred compounds of the present invention selective for cathepsin S have ratios of greater than 10. More preferred compounds of the present invention selective for cathepsin S have ratios of greater than 100. Most preferred compounds of the present invention selective for cathepsin S have ratios of greater than 1000.

Cathepsin L = Cathepsin L (Homo sapiens, UniProt P07711); assay: Cathepsin L inhibition assay, fluorogenic peptide substrate (selectivity for Cat. S over Cat. L); details: ratio of cathepsin L inhibition constant to cathepsin S inhibition constant
Description: as §1, with “cathepsin L, acetyl-histidine-lysine-phenylalanine-lysine-amino” for “cathepsin S, acetyl-histidine-proline-valine-lysine-amino”, “Cathepsin L,” for “Cathepsin S,”, “of 0.1” for “of 0.3-3”, “substrate, acetyl-histidine-lysine-phenylalanine-lysine-amino” for “substrate, acetyl-histidine-proline-valine-lysine-amino”, “of 20” for “of 50”
as §2

Cathepsin B = Cathepsin B (Homo sapiens, UniProt P07858); assay: Cathepsin B inhibition assay, fluorogenic peptide substrate (selectivity for Cat. S over Cat. B); details: ratio of cathepsin B inhibition constant to cathepsin S inhibition constant
Description: as §1, with “B,” for “S,”, “1.5” for “0.3-3”, “[…].” for “50 μM.”
as §2

Sequence of Cathepsin S (P25774 115-331, species assumed): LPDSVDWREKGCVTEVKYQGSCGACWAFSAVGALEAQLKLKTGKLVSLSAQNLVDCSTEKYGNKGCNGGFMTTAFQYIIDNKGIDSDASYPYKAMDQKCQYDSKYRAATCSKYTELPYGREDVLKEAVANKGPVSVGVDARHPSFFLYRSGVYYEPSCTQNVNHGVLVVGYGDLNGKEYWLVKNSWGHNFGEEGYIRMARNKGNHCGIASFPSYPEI
Sequence of Cathepsin L (P07711 114-333, species assumed): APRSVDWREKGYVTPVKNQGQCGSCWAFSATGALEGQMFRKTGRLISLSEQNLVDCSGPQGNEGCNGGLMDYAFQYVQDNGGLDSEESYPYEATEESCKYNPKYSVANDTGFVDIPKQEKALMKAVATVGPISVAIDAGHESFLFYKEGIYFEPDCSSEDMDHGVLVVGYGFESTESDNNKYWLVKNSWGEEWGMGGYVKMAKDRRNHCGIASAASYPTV

CC(C)(C)C[C@@H](Cn1cnc2ccccc21)OC(=O)N[C@@H](CO)CN1CCc2cc(F)ccc21 [Example 12, 1-(S)-(Benzimidazol-1-ylmethyl)-3,3-dimethyl-butyl [2-(5-fluoro-2,3-dihydro-indol-1-yl)-1-(R)-hydroxymethyl-ethyl]carbamate]
Ki (Cathepsin S): < 100 nM
Selectivity for Cat. S over Cat. K (Cathepsin K): − (−, <10)
Selectivity for Cat. S over Cat. L (Cathepsin L): ++ (++, >100)
Selectivity for Cat. S over Cat. B (Cathepsin B): +++ (+++, >1000)
